According to the supplement of paper PMC11061612:

Key:
Assay in all cases: Bliss excess, mean over the matrix (fraction); higher = more synergy
[1] = tested on: EVSA-T (Breast Carcinoma)
Procedure, shortened: (§1)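 After 24 hours at 37°C and 5% CO2 in 1536-well plates, cells in DMEM/F12 or RPMI plus 10% FBS received two-drug dose matrices for 72 hours. Viability came from CellTiter-Glo 2.0 luminescence and was scaled as inhibition, anchored at 0 by vehicle wells and at 1 by blank wells. Combination Emax is taken as the second-highest inhibition in the matrix, and Bliss excess as the observed combination effect less EA + EB − EA·EB, with EA and EB the single-agent effects.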

[2] = tested on: GR-ST (B-Lymphoblastic Leukemia)
Procedure, shortened: as §1

[3] = tested on: DiFi (Colorectal Carcinoma)
Procedure, shortened: as §1

WM-115 (Melanoma) = tested on: WM-115 (Melanoma)
Procedure, shortened: as §1

NCI-H2818 (Mesothelioma) = tested on: NCI-H2818 (Mesothelioma)
Procedure, shortened: as §1

[4] = tested on: P12-ICHIKAWA (T-Lymphoblastic Leukemia)
Procedure, shortened: as §1

[5] = tested on: SW1417 (Colorectal Carcinoma)
Procedure, shortened: as §1

MEL-JUSO (Melanoma) = tested on: MEL-JUSO (Melanoma)
Procedure, shortened: as §1

[6] = tested on: KCL-22 (Chronic Myelogenous Leukemia)
Procedure, shortened: as §1

LN-18 (Glioblastoma) = tested on: LN-18 (Glioblastoma)
Procedure, shortened: as §1

[7] = tested on: COLO-678 (Colorectal Carcinoma)
Procedure, shortened: as §1

[8] = tested on: KARPAS-45 (T-Lymphoblastic Leukemia)
Procedure, shortened: as §1

ES8 (Ewing's Sarcoma) = tested on: ES8 (Ewing's Sarcoma)
Procedure, shortened: as §1

[9] = tested on: SR (Other Blood Carcinomas)
Procedure, shortened: as §1

[10] = tested on: BL-41 (Burkitt's Lymphoma)
Procedure, shortened: as §1

[11] = tested on: MS751 (Cervical Carcinoma)
Procedure, shortened: as §1

[12] = tested on: SW837 (Colorectal Carcinoma)
Procedure, shortened: as §1

[13] = tested on: HL-60 (Acute Myeloid Leukemia)
Procedure, shortened: as §1

[14] = tested on: MOLT-16 (T-Lymphoblastic Leukemia)
Procedure, shortened: as §1

[15] = tested on: TOV-112D (Ovarian Carcinoma)
Procedure, shortened: as §1

Compound | Bliss excess [1] | Bliss excess [2] | Bliss excess [3] | Bliss excess (WM-115 (Melanoma)) | Bliss excess (NCI-H2818 (Mesothelioma)) | Bliss excess [4] | Bliss excess [5] | Bliss excess (MEL-JUSO (Melanoma)) | Bliss excess [6] | Bliss excess (LN-18 (Glioblastoma)) | Bliss excess [7] | Bliss excess [8] | Bliss excess (ES8 (Ewing's Sarcoma)) | Bliss excess [9] | Bliss excess [10] | Bliss excess [11] | Bliss excess [12] | Bliss excess [13] | Bliss excess [14] | Bliss excess [15]
CC(=O)Nc1cccc(-n2c(=O)n(C3CC3)c(=O)c3c(Nc4ccc(I)cc4F)n(C)c(=O)c(C)c32)c1 [Trametinib] + Cc1nc(-c2cn3c(n2)-c2ccc(-c4cnn(C(C)(C)C(N)=O)c4)cc2OCC3)n(C(C)C)n1 [Taselisib] (first compound max 1 µM, 7x7, partner max 10 µM) | -0.0335 | -0.0059 | 0.107 | 0.048 | -0.0103 | 0.267 | -0.0045 | 0.12 | 0.292 | 0.0432 | -0.0114 | 0.112 | -0.0924 | 0.22 | 0.0485 | 0.128 | 0.05 | 0.228 | 0.006 | 0.176
CC1(C)CCC(CN2CCN(c3ccc(C(=O)NS(=O)(=O)c4ccc(NCC5CCOCC5)c([N+](=O)[O-])c4)c(Oc4cnc5[nH]ccc5c4)c3)CC2)=C(c2ccc(Cl)cc2)C1 [Venetoclax] + C1CN(CCC1(C(=O)N[C@@H](CCO)C2=CC=C(C=C2)Cl)N)C3=NC=NC4=C3C=CN4 [Capivasertib] (first compound max 1 µM, 7x7, partner max 3 µM) | -0.0371 | -0.0382 | -0.022 | -0.0785 | -0.0628 | 0.0039 | -0.0744 | -0.0436 | 0.0015 | -0.0374 | -0.118 | 0.0512 | -0.0933 | -0.0142 | -0.0058 | -0.0161 | -0.0256 | 0.0198 | 0.0937 | -0.0285
CC1(C)CCC(CN2CCN(c3ccc(C(=O)NS(=O)(=O)c4ccc(NCC5CCOCC5)c([N+](=O)[O-])c4)c(Oc4cnc5[nH]ccc5c4)c3)CC2)=C(c2ccc(Cl)cc2)C1 [Venetoclax] + C=CCn1c(=O)c2cnc(Nc3ccc(N4CCN(C)CC4)cc3)nc2n1-c1cccc(C(C)(C)O)n1 [AZD1775] (first compound max 1 µM, partner max 1 µM) | 0.0075 | -0.0109 | -0.0222 | -0.0465 | -0.0649 | 0.0117 | -0.0132 | -0.0447 | -0.0114 | 0.0062 | -0.0371 | -0.0002 | 0.0309 | 0.062 | -0.0319 | 0.0125 | 0.0009 | -0.0175 | 0.143 | -0.0375
CC1(C)CCC(CN2CCN(c3ccc(C(=O)NS(=O)(=O)c4ccc(NCC5CCOCC5)c([N+](=O)[O-])c4)c(Oc4cnc5[nH]ccc5c4)c3)CC2)=C(c2ccc(Cl)cc2)C1 [Venetoclax] + CCN(CCO)CCCOc1ccc2c(Nc3cc(CC(=O)Nc4cccc(F)c4)[nH]n3)ncnc2c1 [AZD2811] (first compound max 1 µM, 7x7, partner max 1 µM) | 0.0485 | -0.0505 | -0.098 | -0.0138 | -0.0404 | -0.0612 | -0.0567 | -0.0165 | 0.0709 | -0.0146 | -0.0312 | -0.0373 | 0.0092 | 0.0073 | -0.137 | 0.0094 | 0.0166 | -0.0385 | 0.0239 | -0.0053
CC1(C)CCC(CN2CCN(c3ccc(C(=O)NS(=O)(=O)c4ccc(NCC5CCOCC5)c([N+](=O)[O-])c4)c(Oc4cnc5[nH]ccc5c4)c3)CC2)=C(c2ccc(Cl)cc2)C1 [Venetoclax] + CN(C)CCCOc1ccc(-c2ccc3ncc4c(c3c2)n(C2CCOCC2)c(=O)n4C)cn1 [AZD0156] (first compound max 1 µM, 7x7, partner max 1 µM) | -0.0005 | -0.0363 | 0.0216 | -0.0314 | -0.0501 | 0.0509 | -0.0332 | -0.0128 | 0.0042 | -0.0488 | -0.0549 | -0.0096 | 0.0212 | -0.0266 | 0.0008 | 0.0165 | -0.0067 | 0.0448 | 0.0462 | -0.0341
CC1(C)CCC(CN2CCN(c3ccc(C(=O)NS(=O)(=O)c4ccc(NCC5CCOCC5)c([N+](=O)[O-])c4)c(Oc4cnc5[nH]ccc5c4)c3)CC2)=C(c2ccc(Cl)cc2)C1 [Venetoclax] + COc1cc(Nc2ncc3c(n2)-c2ccc(Cl)cc2C(c2c(F)cccc2OC)=NC3)ccc1C(=O)O [Alisertib] (first compound max 1 µM, 7x7, partner max 10 µM) | 0.0434 | 0.0444 | 0.0661 | -0.0539 | -0.0547 | -0.0398 | -0.0705 | -0.0463 | 0.163 | 0.0481 | -0.0712 | 0.0544 | -0.104 | 0.013 | -0.0436 | 0.0342 | -0.0319 | 0.0894 | 0.0623 | 0.116
CC1(C)CCC(CN2CCN(c3ccc(C(=O)NS(=O)(=O)c4ccc(NCC5CCOCC5)c([N+](=O)[O-])c4)c(Oc4cnc5[nH]ccc5c4)c3)CC2)=C(c2ccc(Cl)cc2)C1 [Venetoclax] + C[C@@H]1COCCN1C2=NC(=NC(=C2)C3(CC3)[S@](=N)(=O)C)C4=C5C=CNC5=NC=C4 [AZD6738] (first compound max 1 µM, 7x7, partner max 10 µM) | 0.0144 | -0.2 | -0.0183 | -0.119 | -0.0458 | 0.0418 | -0.0247 | -0.013 | -0.0088 | -0.0469 | -0.0293 | 0.0449 | 0.004 | -0.0139 | 0.0001 | 0.0094 | -0.003 | -0.0656 | -0.0319 | -0.0251
CC1(C)CCC(CN2CCN(c3ccc(C(=O)NS(=O)(=O)c4ccc(NCC5CCOCC5)c([N+](=O)[O-])c4)c(Oc4cnc5[nH]ccc5c4)c3)CC2)=C(c2ccc(Cl)cc2)C1 [Venetoclax] + C[C@@H](Nc1cc(F)cc(F)c1)c1cc(C(=O)N(C)C)cc2c(=O)cc(N3CCOCC3)oc12 [AZD8186] (first compound max 1 µM, 7x7, partner max 3 µM) | 0.0269 | -0.0713 | -0.021 | -0.0112 | -0.0557 | -0.0097 | -0.0747 | -0.0487 | 0.0129 | -0.0273 | -0.0975 | 0.201 | -0.0777 | -0.027 | 0.0218 | 0.006 | -0.0419 | 0.0249 | 0.0388 | -0.0205
CC1(C)CCC(CN2CCN(c3ccc(C(=O)NS(=O)(=O)c4ccc(NCC5CCOCC5)c([N+](=O)[O-])c4)c(Oc4cnc5[nH]ccc5c4)c3)CC2)=C(c2ccc(Cl)cc2)C1 [Venetoclax] + Cc1cc2ncnn2cc1Nc1ncc2c(n1)n(C1CCOCC1)c(=O)n2C [AZD7648] (first compound max 1 µM, 7x7, partner max 10 µM) | -0.0394 | -0.0513 | -0.0389 | -0.038 | -0.0529 | 0.0424 | -0.0705 | -0.0235 | 0.0097 | 0.045 | -0.0531 | 0.0482 | -0.0817 | -0.0115 | -0.0007 | 0.003 | -0.0563 | 0.0582 | 0.0704 | -0.0253
CC1(C)CCC(CN2CCN(c3ccc(C(=O)NS(=O)(=O)c4ccc(NCC5CCOCC5)c([N+](=O)[O-])c4)c(Oc4cnc5[nH]ccc5c4)c3)CC2)=C(c2ccc(Cl)cc2)C1 [Venetoclax] + Cn1cnc2c(F)c(Nc3ccc(Br)cc3Cl)c(C(=O)NOCCO)cc21 [Selumetinib] (first compound max 1 µM, 7x7, partner max 3 µM) | -0.017 | -0.0318 | -0.0967 | -0.0472 | -0.0491 | 0.0233 | -0.0165 | -0.0481 | -0.0032 | -0.0088 | -0.0298 | 0.0372 | -0.0411 | 0.0026 | 0.0065 | 0.0072 | -0.0129 | 0.0694 | 0.016 | -0.0086
